What was measured:
[1] = test system: Colletotrichum lindemuthianum; assay: In vivo preventive test on Colletotrichum lindemuthianum (leaf spot on bean); details: 500 ppm of active ingredient; preventive spray on bean; evaluated 7 days after inoculation
Experimental: a-6. In Vivo Preventive Test on Colletotrichum lindemuthianum (Leaf Spot on Bean) [table] The active ingredients were made soluble and homogenized in a mixture of Dimethyl sulfoxide/Acetone//Tween® 80 and then diluted in water to the desired concentration. The young plants of bean were treated by spraying the active ingredient prepared as described above. Control plants were treated only with an aqueous solution of Acetone/Dimethyl sulfoxide/Tween® 80. After 24 hours, the plants were contaminated by spraying the leaves with an aqueous suspension of Colletotrichum lindemuthianum spores. The contaminated bean plants were incubated for 24 hours at 20° C. and at 100% relative humidity and then for 6 days at 20° C. and at 90% relative humidity.

Alternaria alternata = Alternaria alternata in vitro cell test; type: cell-based; details: 120 h, 20 ppm of active ingredient, liquid culture, 5 days incubation, read-out: efficacy (inhibition of fungal growth)
Experimental: (§1) a-7. Alternaria alternata In Vitro Cell Test [table] Fungicides were solubilized in DMSO and the solution used to prepare the required range of concentrations. The final concentration of DMSO used in the assay was ≤1%. A spore suspension of A. alternata was prepared and diluted to the desired spore density. Fungicides were evaluated for their ability to inhibit spore germination and mycelium growth in liquid culture assay. The compounds were added in the desired concentration to the culture medium with spores. After 5 days incubation, fungi-toxicity of compounds was determined by spectrometric measurement of mycelium growth. Inhibition of fungal growth was determined by comparing the absorbance values in wells containing the fungicides with the absorbance in control wells without fungicides.

Pyricularia Oryzae = assay: microbe, parasite or virus in culture; type: cell-based; details: 120 h, read-out: efficacy (inhibition of fungal growth)
Ustilago avenae = Ustilago avenae in vitro cell test; type: cell-based; details: 96 h, 20 ppm of active ingredient, liquid culture, 4 days of incubation, read-out: efficacy (inhibition of fungal growth)
Experimental: a-10. Ustilago avenae In Vitro Cell Test [table] Fungicides were solubilized in DMSO and the solution used to prepare the required range of concentrations. The final concentration of DMSO used in the assay was ≤1%. Inoculum was prepared from a pre-culture of U. avenae grown in liquid medium and diluted to the desired optical density (OD). Fungicides were evaluated for their ability to inhibit mycelium growth in liquid culture assay. The compounds were added in the desired concentrations to culture medium containing the spore suspension. After 4 days of incubation, the fungicidal efficacy of compounds was determined by spectrometric measurement of mycelium growth. Inhibition of fungal growth was determined by comparing the absorbance values in wells containing the fungicides with the absorbance in control wells without fungicides.

Pyrenophora teres [2] = assay: In vivo preventive test on Pyrenophora teres (net blotch on barley); details: 500 ppm of active ingredient; preventive spray on barley; evaluated 10 days after inoculation
Experimental: (§2) a-3. In Vivo Preventive Test on Pyrenophora teres (Net Blotch on Barley) [table] The active ingredients were made soluble and homogenized in a mixture of Dimethyl sulfoxide/Acetone//Tween® 80 and then diluted in water to the desired concentration. The young plants of barley were treated by spraying the active ingredient prepared as described above. Control plants were treated only with an aqueous solution of Acetone/Dimethyl sulfoxide/Tween® 80. After 24 hours, the plants were contaminated by spraying the leaves with an aqueous suspension of Pyrenophora teres spores.

Septoria tritici [3] = assay: Septoria tritici in vitro cell test; type: cell-based; details: Zymoseptoria tritici, 168 h; 20 ppm of active ingredient; liquid culture; 7 days incubation; read-out: efficacy (inhibition of fungal growth)
Experimental: as §1, with “a-15. Septoria tritici” for “a-7. Alternaria alternata”, “S. tritici” for “A. alternata”, “After 5 days incubation, fungi-toxicity of compounds was determined by spectrometric measurement of mycelium growth.” left out

Fusarium virguliforme = Fusarium virguliforme in vitro cell test; type: cell-based; details: 144 h, 20 ppm of active ingredient, liquid culture, 6 days incubation, read-out: efficacy (inhibition of fungal growth)
Experimental: as §1, with “a-13. Fusarium virguliforme” for “a-7. Alternaria alternata”, “F. virguliforme” for “A. alternata”, “6” for “5”

Fusarium graminearum = type: in vivo; details: 500 ppm of active ingredient; preventive spray on wheat; evaluated 5 days after inoculation
Septoria tritici [4] = assay: In vivo preventive test on Septoria tritici (leaf spot on wheat); details: 500 ppm of active ingredient; preventive spray on wheat; evaluated 17 to 19 days after inoculation
Experimental: a-4. In Vivo Preventive Test on Septoria tritici (Leaf Spot on Wheat) [table] The active ingredients were made soluble and homogenized in a mixture of Dimethyl sulfoxide/Acetone//Tween® 80 and then diluted in water to the desired concentration. The young plants of wheat were treated by spraying the active ingredient prepared as described above. Control plants were treated only with an aqueous solution of Acetone/Dimethyl sulfoxide/Tween® 80. After 24 hours, the plants were contaminated by spraying the leaves with an aqueous suspension of Septoria tritici spores. The contaminated wheat plants were incubated for 72 hours at 17° C. and at 100% relative humidity and then for 14 to 16 days at 20° C. and at 90% relative humidity.

[5] = test system: Colletotrichum lindemuthianum; assay: Colletotrichum lindemuthianum in vitro cell test; type: cell-based; details: 144 h, 20 ppm of active ingredient, liquid culture, 6 days incubation, read-out: efficacy (inhibition of fungal growth)
Experimental: as §1, with “a-11. Colletotrichum lindemuthianum In” for “a-7. Alternaria alternata In”, “of C. lindemuthianum” for “of A. alternata”, “inhibit spores” for “inhibit spore”, “After 6” for “After 5”

Fusarium culmorum = Fusarium culmorum in vitro cell test; type: cell-based; details: 96 h, 20 ppm of active ingredient, liquid culture, 4 days incubation, read-out: efficacy (inhibition of fungal growth)
Experimental: a-8. Fusarium culmorum In Vitro Cell Test
Fungicides were solubilized in DMSO and the solution used to prepare the required range of concentrations. The final concentration of DMSO used in the assay was ≤1%.
A spore suspension of F. culmorum was prepared and diluted to the desired spore density.
Fungicides were evaluated for their ability to inhibit spore germination and mycelium growth in liquid culture assay. The compounds were added in the desired concentration to the culture medium with spores. After 4 days incubation, fungi-toxicity of compounds was determined by spectrometric measurement of mycelium growth. Inhibition of fungal growth was determined by comparing the absorbance values in wells containing the fungicides with the absorbance in control wells without fungicides.

Sphaerotheca fuliginea = assay: In vivo preventive test on Sphaerotheca fuliginea (powdery mildew on cucurbits); details: 500 ppm of active ingredient; preventive spray on gherkin; evaluated 8 days after inoculation
Experimental: as §2, with “a-5.” for “a-3.”, “Sphaerotheca fuliginea (Powdery Mildew” for “Pyrenophora teres (Net Blotch”, “Cucurbits)” for “Barley)”, “gherkin” for “barley”, “Sphaerotheca fuliginea” for “Pyrenophora teres”

Alternaria brassicae = assay: In vivo preventive test on Alternaria brassicae (leaf spot on radish or cabbage); details: 500 ppm of active ingredient; preventive spray on radish or cabbage; evaluated 3 to 4 days after inoculation
Experimental: a-1. In Vivo Preventive Test on Alternaria brassicae (Leaf Spot on Radish or Cabbage) [table] The active ingredients were made soluble and homogenized in a mixture of Dimethyl sulfoxide/Acetone//Tween® 80 and then diluted in water to the desired concentration. The young plants of radish or cabbage were treated by spraying the active ingredient prepared as described above. Control plants were treated only with an aqueous solution of Acetone/Dimethyl sulfoxide/Tween® 80. After 24 hours, the plants were contaminated by spraying the leaves with an aqueous suspension of Alternaria brassicae spores. The contaminated radish or cabbage plants were incubated for 3 to 4 days at 20° C. and at 100% relative humidity.

Botrytis cinerea [6] = assay: Botrytis cinerea in vitro cell test; type: cell-based; details: 144 h, 20 ppm of active ingredient, liquid culture, 6 days incubation, read-out: efficacy (inhibition of fungal growth)
Experimental: as §1, with “a-14. Botrytis cinerea” for “a-7. Alternaria alternata”, “B. cinerea” for “A. alternata”, “6” for “5”

Pyrenophora teres [7] = assay: Pyrenophora teres in vitro cell test; type: cell-based; details: 144 h, 20 ppm of active ingredient, liquid culture, 6 days incubation, read-out: efficacy (inhibition of fungal growth)
Experimental: as §1, with “a-12. Pyrenophora teres” for “a-7. Alternaria alternata”, “P. teres” for “A. alternata”, “6” for “5”

Botrytis cinerea [8] = assay: In vivo preventive test on Botrytis cinerea (grey mould); details: 500 ppm of active ingredient; preventive spray on gherkin or cabbage; evaluated 4 to 5 days after inoculation
Experimental: a-2. In Vivo Preventive Test on Botrytis cinerea (Grey Mould) [table] The active ingredients were made soluble and homogenized in a mixture of Dimethyl sulfoxide/Acetone//Tween® 80 and then diluted in water to the desired concentration. The young plants of gherkin or cabbage were treated by spraying the active ingredient prepared as described above. Control plants were treated only with an aqueous solution of Acetone/Dimethyl sulfoxide/Tween® 80. After 24 hours, the plants were contaminated by spraying the leaves with an aqueous suspension of Botrytis cinerea spores. The contaminated gherkin plants were incubated for 4 to 5 days at 17° C. and at 90% relative humidity. The contaminated cabbage plants were incubated for 4 to 5 days at 20° C. and at 100% relative humidity.

Cc1ccc(C[C@H]2CON=C(c3cc(C)nnc3Oc3cccc(Cl)c3F)N2)c(Cl)c1 [compound (I), (5S)-3-[3-(3-chloro-2-fluorophenoxy)-6-methylpyridazin-4-yl]-5-(2-chloro-4-methylbenzyl)-5,6-dihydro-4H-1,2,4-oxadiazine]
efficacy [1]: at least 70% | inhibition at 20 ppm (Alternaria alternata): ≥ 70% | inhibition at 20 ppm (Pyricularia Oryzae): ≥ 70% | inhibition at 20 ppm (Ustilago avenae): ≥ 70% | efficacy (Pyrenophora teres [2]): at least 70% | inhibition at 20 ppm (Septoria tritici [3]): ≥ 70% | inhibition at 20 ppm (Fusarium virguliforme): ≥ 70% | efficacy (Fusarium graminearum): at least 70% | efficacy (Septoria tritici [4]): at least 70% | inhibition at 20 ppm [5]: ≥ 70% | inhibition at 20 ppm (Fusarium culmorum): ≥ 70% | efficacy (Sphaerotheca fuliginea): at least 70% | efficacy (Alternaria brassicae): at least 70% | inhibition at 20 ppm (Botrytis cinerea [6]): ≥ 70% | inhibition at 20 ppm (Pyrenophora teres [7]): ≥ 70% | efficacy (Botrytis cinerea [8]): at least 70%
